This experiment has as its target Ribosomal RNA A-site. Briefly: Binding affinity to bacterial ribosomal A site RNA oligonucleotide. Type of experiment: nucleic-acid assay.

The structures appear in SMILES notation.

Compound `NC[C@@H]1O[C@H](O[C@H]2[C@@H](O)[C@H](O[C@@H]3[C@@H](O)[C@H](N)C[C@H](N)[C@H]3O[C@H]3O[C@H](CO)[C@@H](O)[C@H](O)[C@H]3N)O[C@@H]2CO)[C@H](N)[C@@H](O)[C@@H]1O` [PAROMOMYCIN] yielded an equilibrium dissociation constant (Kd) of 0.39 µM.

Regarding `CN[C@@H]1[C@H](O)[C@@H](O[C@@H]2[C@@H](O)[C@H](O[C@H]3O[C@H](CN)CC[C@H]3N)[C@@H](N)C[C@H]2N)OC[C@]1(C)O` [GENTAMICIN C], binding was characterised by a dissociation constant (Kd) of 5.53 µM.

As for `NC[C@H]1O[C@H](O[C@H]2[C@H](O[C@@H]3O[C@H](CO)[C@@H](O)[C@H]3O)[C@@H](O)[C@H](N)C[C@@H]2N)[C@H](N)[C@@H](O)[C@@H]1O` [RIBOSTAMYCIN], binding was characterised by a dissociation constant (Kd) of 16.4 µM.

`CN[C@@H]1[C@@H](O)[C@@H](O[C@@H]2[C@@H](O)[C@H](O[C@H]3O[C@H]([C@@H](C)O)[C@@H](O)[C@H](O)[C@H]3N)[C@@H](N)C[C@H]2N)OC[C@]1(C)O` [GENETICIN] yielded a Kd of 14.5 µM. `NC[C@H]1O[C@H](O[C@H]2[C@H](O)[C@@H](O)[C@H](N)C[C@@H]2N)[C@H](N)[C@@H](O)[C@@H]1O` [NEAMINE] came in with a Kd of 7.39 µM.

The values are drawn from ChEMBL document CHEMBL1149500, “Binding of aminoglycosidic antibiotics to the oligonucleotide A-site model and 30S ribosomal subunit: Poisson-Boltzmann model, thermal denaturation, and fluorescence studies” (J Med Chem, 2006).
